Converted amounts (≈) assume the structure as drawn.

The record followed here is publication PMC7496096, “Functional Characterisation of ClpP Mutations Conferring Resistance to Acyldepsipeptide Antibiotics in Firmicutes” (Chembiochem, 2020).

The test system of test [1] is S. aureus 133. Description: microbe, parasite or virus in culture. It counts as cell-based, Staphylococcus aureus. The conditions noted are these: broth microdilution, Mueller-Hinton broth (without cation adjustment), CLSI, inoculum 5×10^4 CFU mL^−1; wild type. As to the method:
(§1) Determination of antibacterial activity: ADEP1 was purified from the culture supernatant of S. hawaiiensis NRRL 15010 as described.4 ADEPs 2, 4, 7, 9 were custom synthesised by EMC Microcollections, Tübingen, or provided by AiCuris, Wuppertal, Germany. The minimal inhibitory concentration (MIC) was determined by broth microdilution in Mueller‐Hinton broth (without cation adjustment) according to the guidelines of the Clinical Laboratory Standards Institute (CLSI).69 The inoculum was set to 5×10^4 CFU mL^−1 to allow some distance to the determined spontaneous resistance frequencies. […] All other ADEPs were used from DMSO stock solutions kept at −20 °C.
A general note: Broth dilution looks for growth in wells or tubes with falling amounts of substance.

The subject of test [2] is S. aureus ATCC 29213. Description: microbe, parasite or virus in culture. It counts as cell-based, Staphylococcus aureus. Particulars: broth microdilution, Mueller-Hinton broth (without cation adjustment), CLSI, inoculum 5×10^4 CFU mL^−1; wild type. The protocol:
as §1

Test [3] concerns E. faecium L4001. It counts as cell-based, Enterococcus faecium. Particulars: broth microdilution, Mueller-Hinton broth; wildtype. As to the method:
as §1

The test system of test [4] is S. pneumoniae G9A. It counts as cell-based, Streptococcus pneumoniae. Particulars: broth microdilution, Mueller-Hinton broth; wildtype. The protocol: as §1
Test [5] concerns S. aureus 133. Description: Spontaneous resistance rate on ADEP-containing agar. In kind it is cell-based, Staphylococcus aureus. Particulars: ADEP exposure 4× MIC in Mueller-Hinton agar; 5×10^6 cells plated, colonies counted after 24 h at 37 °C. As to the method:
(§2) Screening for ADEP‐resistant mutants and determination of resistance rates: Single colonies of wild‐type strains grown on Mueller‐Hinton agar plates overnight were suspended in sterile saline and a final inoculum of 5×10^6 cells was spread on plates supplemented with different ADEP congeners at 4× and 10× the MIC. For B. subtilis strain 3xclpP, ADEP7‐containing Mueller‐Hinton agar plates were additionally supplemented with 1 mM IPTG. Resistant colonies were counted after 24 h at 37 °C and colonies were randomly chosen for MIC determinations and sequencing. Mutations in the clpP gene of the respective isolated mutants were analysed by amplifying the clpP gene (and upstream promoter region) by PCR and sequencing of the resulting PCR amplicons (LGC genomics). Sequencing data were analysed by using SnapGene software (GSL Biotech).

The subject of test [6] is S. aureus ATCC 29213. Described as above. In kind it is cell-based, Staphylococcus aureus. Particulars: 5×10^6 cells plated, colonies counted after 24 h at 37 °C. As to the method: as §2
Test [7] has as its system B. subtilis RC11. In kind it is cell-based, Bacillus subtilis. The conditions noted are these: resistant clone of B. subtilis 168; ClpP Q132→STOP, premature stop. As to the method: as §1, §2
Test [8] relates to B. subtilis RC2. It counts as cell-based, Bacillus subtilis. The conditions noted are these: resistant clone of B. subtilis 168; ClpP L3→STOP, premature stop. The protocol:
as §1, §2

Test [9] deals with B. subtilis RC4. In kind it is cell-based, Bacillus subtilis. Particulars: resistant clone of B. subtilis 168; G insertion, frame shift, premature stop (E163→STOP). The protocol: as §1, §2
In test [10] the test system is B. subtilis RC5. It counts as cell-based, Bacillus subtilis. Particulars: resistant clone of B. subtilis 168; ClpP K85→STOP, premature stop. As to the method: as §1, §2
The test system of test [11] is B. subtilis RC6. In kind it is cell-based, Bacillus subtilis. The conditions noted are these: resistant clone of B. subtilis 168; ClpP N65→N; Y183→F (C-terminus; α7). As to the method: as §1, §2
Test [12] deals with B. subtilis RC7. It counts as cell-based, Bacillus subtilis. Particulars: resistant clone of B. subtilis 168; ClpP Q132→STOP, premature stop. The protocol:
as §1, §2

In test [13] the test system is B. subtilis RC8. In kind it is cell-based, Bacillus subtilis. The conditions noted are these: resistant clone of B. subtilis 168; ClpP R142→H, intra-ring interaction. As to the method:
as §1, §2

Test [14] has as its system wild-type SaClpP. Description: Suc-LY-AMC peptide degradation by ADEP-activated ClpP. It counts as biochemical, Staphylococcus aureus. Particulars: 1 μM SaClpP, 100 μM Suc-LY-AMC, 32 °C, 15 min pre-incubation; Figure 6B. The protocol: (§3) Peptide and protein degradation assays: Degradation assays with the fluorogenic peptide substrate Suc‐Leu‐Tyr‐7‐amino‐4‐methylcoumarin (Suc‐LY‐AMC) were performed in either BsClpP (50 mM Tris‐HCl, 25 mM MgCl2, 200 mM KCl, 2 mM DTT, pH 8) or SaClpP activity buffer (100 mM HEPES pH 7, 100 mM NaCl) in black, flat‐bottom‐96‐well plates (Sarstedt) with a total reaction volume of 100 μl and reaction temperatures of 32 °C and 37 °C for SaClpP and BsClpP, respectively. Purified ClpP proteins (final concentrations as indicated in the respective experiments) and ADEP2 (applied in 1 μl from a DMSO stock solution) were mixed and pre‐incubated for 15 min at reaction temperatures. […] Fluorophore release upon peptide hydrolysis was read out in a Tecan Infinite M200Pro plate reader (excitation/emission: 380/460 nm) every 30–60 s for 1 h. […] SaClpP (1 μM) and ADEP2 (concentrations as indicated) were pre‐incubated at 32 °C for 15 min before initiating the reaction by addition of FITC – casein (20 μM final concentration) and fluorescence readout (excitation/emission: 485/535 nm). In both assays, enzyme velocity was determined by linear regression of the initial segment of the fluorescence‐time plot in GraphPad Prism 5. […] Decrease of fluorescence was monitored at an emission wavelength of 535 nm in white, flat‐bottom 96‐well‐plates (Greiner). […]

Test [15] concerns wild-type SaClpP. Description: FITC-casein degradation by ADEP-activated ClpP. It counts as biochemical, Staphylococcus aureus. Particulars: 1 μM SaClpP, 20 μM FITC-casein, 32 °C; Figure 6D. The protocol:
as §3

Turning to `C[C@@H]1C[C@H]2C(=O)OC[C@H](NC(=O)[C@H](Cc3cc(F)cc(F)c3)NC(=O)CCC3CCCCC3)C(=O)N3CCC[C@H]3C(=O)N3CCCC[C@H]3C(=O)N[C@@H](C)C(=O)N2C1` [ADEP2], the MIC in [1] is 0.031 µg/mL (≈ 0.0388 µM); in test [2] it was 0.125 µg/mL (≈ 0.156 µM); in [3] it was at most 0.063 µg/mL; in test [4], at most 0.063 µg/mL; in test [7], over 64 µg/mL; in test [8], over 64 µg/mL. The MIC in test [9], in [10], in test [11], in [12] and in test [13] was over 64 µg/mL in each case. Moreover, the Resistance rate in test [5] is 3×10^−6; in [6] (ADEP exposure 4× MIC in Mueller-Hinton agar), 7×10^−7; in test [6] (ADEP exposure 10× MIC in Mueller-Hinton agar), 7×10^−7. The “concentration sufficient for full catalytic stimulation (Suc-LY-AMC degradation)” value in test [14] is 3 µM. The “concentration sufficient for an almost maximal casein degradation rate” value in test [15] is 3 µM.
